We go through two compounds from patent US20050244966A1, “Insulin producing cells” (Ramot At Tel Aviv University Ltd., priority 2003, published 2005).

The experiment concerns FH-B-TPN cells. Description: Insulin content of FH-B-TPN cells (RIA/ELISA of cell extracts). The experiment is classed as cell-based, human. The following applies: for Insulin content / Fold increase (insulin content): FH-B-TPN cells; for Insulin content / Effect on insulin content of FH-B-TPN cells (in words): RIA; for Fold increase (insulin content): vs CM; for Effect on insulin content of FH-B-TPN cells (in words): in CM, compared with regular medium or with Act-A alone. The protocol:
FH cells were isolated and cultured as described (19), in Dulbecco's modified Eagle's medium containing 25 mM glucose and supplemented with 10% fetal bovine serum (FBS), 100 U/ml penicillin, 100 μg/ml streptomycin, 5 μM hydrocortisone, and 5 μg/ml insulin. A subclone of FH cells that was stably transduced with hTERT, designated FH-B-hTERT (FH-B), was cultured in the same medium, as described (20). FH-B cells transduced with the Pdx1 gene (see below), designated FH-B-TPN cells, were maintained in the same culture medium, with the exception of hydrocortisone and insulin (complete medium CM). For incubation in serum-free medium, the cells were placed in DMEM containing antibiotics, in the presence of 100 ng/ml insulin, 55 ng/ml transferrin, and 50 pg/ml selenium (ITS, Sigma). For all experiments activin A (Cytolab/PreproTech Asia, Rehovot, Israel) was added at a final concentration of 4 nM. except for those aimed at promoting differentiation of FH-B-TPN cells towards the beta-cell phenotype. There, addition of Act-A, as well as betacellulin (BTC, R&D Systems, Minneapolis, Minn.), nicotinamide (NA), exendin-4, and hepatocyte growth factor (HGF) (the last 3 compounds from Sigma-Aldrich) was at concentrations detailed herein below.
Insulin secretion from FH-B-TPN cells was measured by static incubation as previously described (2). Cells were plated in 24-well plates at 10^5 cells per well. The cells were preincubated for 1 hour in Krebs-Ringer buffer (KRB), followed by incubation for the indicated period of time in KRB containing 0.5 mM 1-isobutyl 3-methylxanthine (IBMX) and glucose at various concentrations. The cells were then extracted in acetic acid, and the amount of insulin in the buffer and cell extract was determined by radioimmunoassay (RIA) using the INSIK-5 kit (DiaSorin, Vercelli, Italy) according to the manufacturer. This assay has <20% crossreactivity with proinsulin. In addition, insulin content was determined using an ELISA kit (Diagnostic Systems Laboratories, Webster, Tex. or (Mercodia, Uppsala, Sweden), which recognizes only mature insulin. Insulin content was normalized to total cellular protein, measured by the Bio-Rad (Hercules, Calif.) Protein Assay kit. Human C-peptide in the cell extract was determined using a RIA kit (DiaSorin, Vercelli, Italy) or ELISA kit (Mercodia, Uppsala, Sweden) according to the manufacturers.
A general note: An ELISA detects its analyte on a solid surface through an enzyme-linked reagent.

For the compound `NC(=O)c1cccnc1` [NA, nicotinamide, reference compound], the “Effect on insulin content of FH-B-TPN cells (in words)” value is reported as “decrease”. Also, for the setting “5 mM in CM (6 d)”, the Insulin content was found to be 122 ± 20 ng/10^6 cells and the “Fold increase (insulin content)” value is reported as 0.6.

Regarding exendin-4 [reference compound], the “Effect on insulin content of FH-B-TPN cells (in words)” value is recorded as “decrease”. Further, under “2-8 nM in CM (6 d)”, the Insulin content was determined as 0 ng/10^6 cells and the “Fold increase (insulin content)” value came out at 0.
